Bounds are passed on as bounds.

The source of these data is ChEMBL document CHEMBL1138659 (J Med Chem, 2004).

Series [1] deals with Rattus norvegicus. As to the kind of experiment: In vivo glucose reduction in rats at 10 mg/kg dose. The series is classed as functional. Details: scale not given: the % may be the effect or the level left.
Series [2] concerns the target Protein kinase C beta type (Homo sapiens, UniProt P05771). As to the kind of experiment: Inhibition of human Protein kinase C beta 2.
For series [3], the species on record is Rattus norvegicus. As to the kind of experiment: Threshold minimal effective dose in rats. The format is functional.
The target in series [4] is TGF-beta receptor type-2 (Homo sapiens, UniProt P37173). As to the kind of experiment: Inhibition of human TGF-beta type II receptor.
Sequence of TGF-beta receptor type-2 (P37173 whole entry): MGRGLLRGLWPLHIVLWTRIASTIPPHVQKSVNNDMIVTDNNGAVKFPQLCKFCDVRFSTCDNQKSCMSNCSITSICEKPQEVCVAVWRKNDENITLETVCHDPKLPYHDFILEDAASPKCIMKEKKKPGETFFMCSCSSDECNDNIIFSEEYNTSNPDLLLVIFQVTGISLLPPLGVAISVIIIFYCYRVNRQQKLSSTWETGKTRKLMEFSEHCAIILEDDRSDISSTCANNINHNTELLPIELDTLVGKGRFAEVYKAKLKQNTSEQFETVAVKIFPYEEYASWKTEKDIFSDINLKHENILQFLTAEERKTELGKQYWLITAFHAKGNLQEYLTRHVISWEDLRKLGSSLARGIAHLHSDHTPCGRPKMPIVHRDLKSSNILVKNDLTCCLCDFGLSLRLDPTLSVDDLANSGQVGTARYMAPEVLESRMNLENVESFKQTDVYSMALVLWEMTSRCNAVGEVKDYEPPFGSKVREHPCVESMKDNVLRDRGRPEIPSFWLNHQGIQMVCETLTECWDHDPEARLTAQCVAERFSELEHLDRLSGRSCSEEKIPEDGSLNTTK
For series [5], the target named is RAC-alpha serine/threonine-protein kinase (Homo sapiens, UniProt P31749). Kind of series: Inhibition of human Akt1.
Sequence of RAC-alpha serine/threonine-protein kinase (P31749 whole entry): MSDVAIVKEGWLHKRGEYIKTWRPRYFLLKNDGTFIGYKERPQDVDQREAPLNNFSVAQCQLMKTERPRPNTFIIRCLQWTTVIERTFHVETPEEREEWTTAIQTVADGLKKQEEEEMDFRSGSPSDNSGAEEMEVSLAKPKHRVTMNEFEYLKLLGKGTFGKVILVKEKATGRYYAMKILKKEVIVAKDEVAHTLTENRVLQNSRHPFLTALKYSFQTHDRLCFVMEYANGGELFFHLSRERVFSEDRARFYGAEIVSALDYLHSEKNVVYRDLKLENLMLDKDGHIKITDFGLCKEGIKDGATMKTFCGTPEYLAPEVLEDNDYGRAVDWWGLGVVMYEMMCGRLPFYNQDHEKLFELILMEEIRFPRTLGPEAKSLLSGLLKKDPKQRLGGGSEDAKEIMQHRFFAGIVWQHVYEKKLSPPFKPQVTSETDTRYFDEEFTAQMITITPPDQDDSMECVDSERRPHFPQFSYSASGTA
Series [6] addresses Cyclin-dependent kinase 4 (Homo sapiens, UniProt P11802). Kind of series: Inhibition of human Cyclin-dependent kinase 4.
For series [7], the target named is cAMP-dependent protein kinase catalytic subunit beta (Homo sapiens, UniProt P22694). Kind of series: Inhibition of human Protein kinase A beta.
For series [8], the system named is Rattus norvegicus. As to the kind of experiment: In vivo insulin (10 units) response in rats at 10 mg/kg dose. The format is functional.
Series [9] addresses T1, Glycogen synthase kinase-3 beta (Homo sapiens, UniProt P49841). As to the kind of experiment: Inhibition of Glycogen synthase kinase-3 beta dependent Tau protein serine-396 phosphorylation in human SY5Y cells. The format is functional, cell-based.
Series [10] deals with T1, Glycogen synthase kinase-3 beta.
Description: Inhibition of human Glycogen synthase kinase-3 beta
For series [11], the target named is MAP kinase p38 (Homo sapiens, UniProt O15264+Q15759+Q16539+P53778). As to the kind of experiment: Inhibition of human Mitogen-activated protein kinase p38.
The target in series [12] is Cyclin-dependent kinase 2 (Homo sapiens, UniProt P24941). As to the kind of experiment: Inhibition of human Cyclin-dependent kinase 2.
The target of series [13] is Vascular endothelial growth factor receptor 2 (Homo sapiens, UniProt P35968). Kind of series: Inhibition of human Vascular endothelial growth factor receptor 2.
Sequence of Vascular endothelial growth factor receptor 2 (P35968 whole entry): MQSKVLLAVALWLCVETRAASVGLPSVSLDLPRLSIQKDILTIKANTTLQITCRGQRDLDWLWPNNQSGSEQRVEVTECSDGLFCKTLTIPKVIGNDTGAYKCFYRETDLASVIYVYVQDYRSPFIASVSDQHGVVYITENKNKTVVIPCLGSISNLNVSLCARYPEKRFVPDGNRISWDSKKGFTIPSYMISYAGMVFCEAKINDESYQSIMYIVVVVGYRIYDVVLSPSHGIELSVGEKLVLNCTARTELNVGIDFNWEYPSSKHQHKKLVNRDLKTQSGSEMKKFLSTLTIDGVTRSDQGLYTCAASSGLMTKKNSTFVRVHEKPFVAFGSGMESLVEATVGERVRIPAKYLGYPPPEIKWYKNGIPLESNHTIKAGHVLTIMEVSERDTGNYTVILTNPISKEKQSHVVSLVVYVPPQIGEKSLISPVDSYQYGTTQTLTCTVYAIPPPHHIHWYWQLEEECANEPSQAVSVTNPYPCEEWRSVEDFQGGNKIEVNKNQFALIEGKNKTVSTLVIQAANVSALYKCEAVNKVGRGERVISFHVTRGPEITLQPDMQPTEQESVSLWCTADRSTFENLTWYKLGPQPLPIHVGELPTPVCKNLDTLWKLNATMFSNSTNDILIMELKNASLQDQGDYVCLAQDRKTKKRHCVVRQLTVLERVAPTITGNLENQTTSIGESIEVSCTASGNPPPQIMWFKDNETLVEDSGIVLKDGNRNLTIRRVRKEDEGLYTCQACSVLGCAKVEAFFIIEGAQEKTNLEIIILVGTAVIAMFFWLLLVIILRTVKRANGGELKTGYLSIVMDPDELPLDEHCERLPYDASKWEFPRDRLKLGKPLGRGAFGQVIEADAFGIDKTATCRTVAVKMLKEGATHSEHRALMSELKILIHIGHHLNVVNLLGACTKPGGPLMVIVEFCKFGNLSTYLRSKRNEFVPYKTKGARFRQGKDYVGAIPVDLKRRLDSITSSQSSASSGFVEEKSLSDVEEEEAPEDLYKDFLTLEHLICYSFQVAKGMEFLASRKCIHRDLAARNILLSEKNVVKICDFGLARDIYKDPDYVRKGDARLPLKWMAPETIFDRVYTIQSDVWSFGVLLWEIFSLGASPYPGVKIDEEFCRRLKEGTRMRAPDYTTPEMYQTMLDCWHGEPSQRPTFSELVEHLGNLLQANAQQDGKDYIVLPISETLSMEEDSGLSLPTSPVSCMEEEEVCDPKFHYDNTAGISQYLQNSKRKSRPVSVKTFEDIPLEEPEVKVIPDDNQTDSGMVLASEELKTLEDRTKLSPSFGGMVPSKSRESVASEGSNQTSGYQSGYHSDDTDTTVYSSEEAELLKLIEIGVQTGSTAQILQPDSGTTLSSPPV
Series [14] addresses Mitogen-activated protein kinase kinase kinase 20 (Homo sapiens, UniProt Q9NYL2).
Series [15] in a line: Half life in in vivo, hours. The series is classed as ADME, organism-based. To be noted: rat.
Series [16] in a line: Half life in oral, hours. The format is ADME, organism-based. Conditions: rat, in vivo.
A short description of series [17]: Compound was tested for in vivo clearance. The series is classed as ADME, organism-based. To be noted: rat.
The nature of series [18]: Oral bioavailability. The series is classed as ADME, organism-based. Conditions: rat, in vivo.
Series [19] in a line: Compound was tested for volume distribution. The format is ADME. Conditions: rat; read-out: Volume distribution.
A short description of series [20]: Compound was tested for oral AUC at 0 to 24 hours. To be noted: rat. The series is classed as ADME. Details: time < 24 hr, route oral.

Sequence of Protein kinase C beta type (P05771 whole entry): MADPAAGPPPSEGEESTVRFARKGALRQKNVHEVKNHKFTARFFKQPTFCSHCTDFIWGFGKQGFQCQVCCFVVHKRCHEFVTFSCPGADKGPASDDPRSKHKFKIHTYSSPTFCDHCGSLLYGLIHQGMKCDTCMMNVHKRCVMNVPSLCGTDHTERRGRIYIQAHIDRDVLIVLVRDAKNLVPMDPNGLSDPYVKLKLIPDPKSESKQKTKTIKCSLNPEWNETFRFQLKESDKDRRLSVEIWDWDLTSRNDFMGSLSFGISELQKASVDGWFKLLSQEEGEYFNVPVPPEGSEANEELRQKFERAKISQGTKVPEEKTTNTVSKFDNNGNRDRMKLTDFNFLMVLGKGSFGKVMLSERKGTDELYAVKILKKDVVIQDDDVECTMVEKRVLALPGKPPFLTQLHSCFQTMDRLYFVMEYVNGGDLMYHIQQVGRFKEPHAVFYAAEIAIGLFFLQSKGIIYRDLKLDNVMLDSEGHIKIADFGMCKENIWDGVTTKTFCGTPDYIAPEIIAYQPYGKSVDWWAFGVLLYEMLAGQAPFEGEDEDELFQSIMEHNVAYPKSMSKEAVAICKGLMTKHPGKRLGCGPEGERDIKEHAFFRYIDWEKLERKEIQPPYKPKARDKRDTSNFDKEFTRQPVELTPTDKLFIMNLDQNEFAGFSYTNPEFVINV
T1 sequence (P49841 whole entry): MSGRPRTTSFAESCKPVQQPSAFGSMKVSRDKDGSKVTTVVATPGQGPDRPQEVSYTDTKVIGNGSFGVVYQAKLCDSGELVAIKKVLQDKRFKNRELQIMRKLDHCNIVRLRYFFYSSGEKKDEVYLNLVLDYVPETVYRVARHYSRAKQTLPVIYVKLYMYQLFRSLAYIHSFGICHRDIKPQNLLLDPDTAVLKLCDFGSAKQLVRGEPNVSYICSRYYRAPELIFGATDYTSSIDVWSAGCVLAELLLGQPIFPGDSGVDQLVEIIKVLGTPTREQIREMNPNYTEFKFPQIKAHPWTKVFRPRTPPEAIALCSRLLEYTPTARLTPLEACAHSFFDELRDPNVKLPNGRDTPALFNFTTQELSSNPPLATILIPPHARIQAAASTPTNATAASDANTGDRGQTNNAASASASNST
Sequence of Cyclin-dependent kinase 4 (P11802 whole entry): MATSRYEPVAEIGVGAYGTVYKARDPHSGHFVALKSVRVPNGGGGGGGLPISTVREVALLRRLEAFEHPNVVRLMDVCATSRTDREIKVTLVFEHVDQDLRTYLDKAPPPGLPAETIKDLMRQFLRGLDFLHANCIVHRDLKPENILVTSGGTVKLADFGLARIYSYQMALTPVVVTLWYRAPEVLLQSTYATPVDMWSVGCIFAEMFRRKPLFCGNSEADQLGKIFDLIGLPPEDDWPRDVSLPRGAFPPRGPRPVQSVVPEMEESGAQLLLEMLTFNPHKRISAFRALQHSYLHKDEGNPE
Sequence of Mitogen-activated protein kinase kinase kinase 20 (Q9NYL2 whole entry): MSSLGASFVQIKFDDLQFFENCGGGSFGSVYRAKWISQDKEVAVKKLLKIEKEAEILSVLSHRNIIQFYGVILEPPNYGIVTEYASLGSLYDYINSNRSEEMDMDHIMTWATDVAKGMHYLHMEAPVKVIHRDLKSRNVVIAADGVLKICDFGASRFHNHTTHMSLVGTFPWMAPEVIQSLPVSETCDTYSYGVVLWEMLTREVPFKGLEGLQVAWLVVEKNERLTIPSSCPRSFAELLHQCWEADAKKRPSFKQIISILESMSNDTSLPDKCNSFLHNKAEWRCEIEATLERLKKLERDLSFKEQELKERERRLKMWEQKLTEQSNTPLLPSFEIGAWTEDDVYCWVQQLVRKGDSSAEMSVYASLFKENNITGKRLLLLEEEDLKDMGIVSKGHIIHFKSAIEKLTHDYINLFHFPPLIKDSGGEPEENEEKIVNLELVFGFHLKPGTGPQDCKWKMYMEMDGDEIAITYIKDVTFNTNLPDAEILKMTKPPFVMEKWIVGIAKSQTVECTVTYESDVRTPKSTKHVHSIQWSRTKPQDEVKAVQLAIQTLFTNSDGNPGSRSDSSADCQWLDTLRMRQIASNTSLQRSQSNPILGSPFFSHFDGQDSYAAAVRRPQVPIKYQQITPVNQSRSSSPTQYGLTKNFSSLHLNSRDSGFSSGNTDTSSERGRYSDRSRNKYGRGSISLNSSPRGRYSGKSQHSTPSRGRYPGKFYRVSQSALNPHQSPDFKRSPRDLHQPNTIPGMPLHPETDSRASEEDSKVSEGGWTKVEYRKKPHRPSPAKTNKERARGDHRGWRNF

For orientation: IC50 means the concentration that gives 50% inhibition. In series [1], `O=C1NC(=O)C(c2cnc3ccccn23)=C1c1cn2c3c(cccc13)CN(C(=O)N1CCOCC1)CC2` returned an Activity of 78%. Further, the IC50 in series [2] was 1100 nM; in series [4], 2000 nM; in series [5], > 20000 nM; in series [6] it was 1700 nM; in [7], > 20000 nM; in series [9], 2.6 nM. Moreover, the midpoint of inhibition in series [10], the IC50, lay at 1.3 nM. In series [3], the TMED came out at 1.44 mg/kg. In addition, the Response in series [8] is 119%.

The compound `O=C1NC(=O)C(c2cnc3ccccn23)=C1c1cn2c3c(cccc13)CN(C(=O)N1CCCCC1)CC2` registered an Activity in [1] of 69%. For the same compound, the half-maximal inhibitory concentration (IC50) was 560 nM in series [2]; > 20000 nM in series [11]; 5400 nM in series [12]; 3100 nM in series [4]; > 20000 nM in series [13]; > 20000 nM in series [5]. For the same compound, the IC50 in [6] was 4800 nM; in series [9], 1.6 nM; in series [10] it was 2 nM. Also, the TMED in [3] was 2.22 mg/kg. Besides, the Response in series [8] was 124%.

`CN(C)C(=O)N1CCn2cc(C3=C(c4cnc5ccccn45)C(=O)NC3=O)c3cccc(c32)C1` gave an Activity in [1] of 53%. The IC50 is > 20000 nM in series [14]; 1000 nM in series [2]; > 20000 nM in series [11]; 2100 nM in [12]; > 20000 nM in series [4]; > 20000 nM in series [13]. The half-maximal inhibitory concentration (IC50) in series [5] was > 20000 nM; in [6], 1500 nM; in series [7], > 20000 nM; in [9] it was 12 nM; in [10], 1.6 nM. In [8], this compound returned a Response of 104%.

`CC(C)OC(=O)N1CCn2cc(C3=C(c4cnc5ccccn45)C(=O)NC3=O)c3cccc(c32)C1`: the Activity in [1] was determined as 58%. Besides, the half-inhibitory concentration (IC50) in [14] was > 20000 nM; in [2], 800 nM; in [12] it was 3400 nM; in series [4], > 20000 nM; in series [13] it was > 20000 nM; in series [5], > 20000 nM. The IC50 in series [6] was 3300 nM; in [7], > 20000 nM; in series [9], 15 nM; in [10], 1.3 nM. Further, in series [3], the TMED is 4.27 mg/kg. In series [8], this compound gave a Response of 105%.

Broadly, the half-life is the time needed for the level to fall by half in the phase considered. As a reminder, the clearance is a measure of how efficiently the substance is removed, as volume per time. The term bioavailability denotes the share of a dose that reaches the circulation, judged against a reference dose that is usually intravenous. Usually AUC stands for concentration integrated over time. Compound `O=C1NC(=O)C(c2cnc3ccccn23)=C1c1cn2c3c(cc(F)cc13)CN(C(=O)N1CCCCC1)CC2` [LY-2090314] gave an Activity in [1] of 61%. Moreover, the IC50 in [2] is 420 nM; in series [4] it was 1200 nM; in series [5] it was > 20000 nM; in series [6], 1800 nM; in series [7], > 20000 nM; in series [9], 0.7 nM. The compound further returned an IC50 in [10] of 1.1 nM. Further, the half-life in [15] is 1.1 h; in series [16], 2.8 h. This compound returned a TMED in series [3] of 1.5 mg/kg. Moreover, the clearance in series [17] turned out to be 12 mL/min/kg. In series [18], this compound registered a bioavailability of 23%. Also, the Vd in series [19] amounted to 1 L. The same compound displayed an area under the curve (AUC) in [20] of 3550 ng·h/mL. This compound also yielded a Response in series [8] of 124%.
